Assay results published in ChEMBL document CHEMBL1201862, “PubChem BioAssay data set” (2004).
Calls of active or inactive are those of the source.

Assays:
Hexokinase-1 = target: T1, Hexokinase-1 (Homo sapiens, UniProt P19367); assay: SAR analysis of small molecule inhibitors of hexokinase domain containing I (HKDC1) in the hexokinase 1 selectivity assay. [Related pubchem assays (depositor defined):AID493160, AID493190]; type: functional
T1 sequence (P19367 whole entry): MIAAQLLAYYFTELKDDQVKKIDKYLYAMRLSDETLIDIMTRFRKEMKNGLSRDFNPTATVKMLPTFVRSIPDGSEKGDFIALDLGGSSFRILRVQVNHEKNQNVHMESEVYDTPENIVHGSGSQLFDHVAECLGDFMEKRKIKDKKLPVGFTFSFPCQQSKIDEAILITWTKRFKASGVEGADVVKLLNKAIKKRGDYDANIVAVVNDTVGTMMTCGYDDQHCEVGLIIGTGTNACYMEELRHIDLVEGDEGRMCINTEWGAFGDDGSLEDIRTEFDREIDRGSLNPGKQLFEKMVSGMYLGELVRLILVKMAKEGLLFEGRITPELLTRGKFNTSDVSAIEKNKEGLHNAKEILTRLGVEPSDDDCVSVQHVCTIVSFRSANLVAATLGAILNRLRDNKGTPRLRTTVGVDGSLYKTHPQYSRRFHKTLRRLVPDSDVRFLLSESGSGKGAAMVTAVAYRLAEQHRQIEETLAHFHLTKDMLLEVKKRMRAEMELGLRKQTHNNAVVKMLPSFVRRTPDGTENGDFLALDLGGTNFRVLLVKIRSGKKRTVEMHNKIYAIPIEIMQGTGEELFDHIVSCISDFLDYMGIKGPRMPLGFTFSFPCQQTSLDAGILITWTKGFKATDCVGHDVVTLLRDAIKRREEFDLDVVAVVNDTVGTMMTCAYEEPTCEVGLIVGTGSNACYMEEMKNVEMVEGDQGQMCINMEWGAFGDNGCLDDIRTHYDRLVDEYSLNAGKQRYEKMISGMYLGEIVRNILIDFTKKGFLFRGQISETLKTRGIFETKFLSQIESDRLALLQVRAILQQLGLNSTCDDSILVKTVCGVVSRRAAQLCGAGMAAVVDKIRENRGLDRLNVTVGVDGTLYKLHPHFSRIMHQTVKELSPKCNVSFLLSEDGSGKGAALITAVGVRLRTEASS

Hexokinase HKDC1 = target: T2, Hexokinase HKDC1 (Homo sapiens, UniProt Q2TB90); assay: SAR analysis of small molecule inhibitors of hexokinase domain containing I (HKDC1). [Related pubchem assays (depositor defined):AID493160, AID493190]; type: functional
T2 sequence (Q2TB90 whole entry): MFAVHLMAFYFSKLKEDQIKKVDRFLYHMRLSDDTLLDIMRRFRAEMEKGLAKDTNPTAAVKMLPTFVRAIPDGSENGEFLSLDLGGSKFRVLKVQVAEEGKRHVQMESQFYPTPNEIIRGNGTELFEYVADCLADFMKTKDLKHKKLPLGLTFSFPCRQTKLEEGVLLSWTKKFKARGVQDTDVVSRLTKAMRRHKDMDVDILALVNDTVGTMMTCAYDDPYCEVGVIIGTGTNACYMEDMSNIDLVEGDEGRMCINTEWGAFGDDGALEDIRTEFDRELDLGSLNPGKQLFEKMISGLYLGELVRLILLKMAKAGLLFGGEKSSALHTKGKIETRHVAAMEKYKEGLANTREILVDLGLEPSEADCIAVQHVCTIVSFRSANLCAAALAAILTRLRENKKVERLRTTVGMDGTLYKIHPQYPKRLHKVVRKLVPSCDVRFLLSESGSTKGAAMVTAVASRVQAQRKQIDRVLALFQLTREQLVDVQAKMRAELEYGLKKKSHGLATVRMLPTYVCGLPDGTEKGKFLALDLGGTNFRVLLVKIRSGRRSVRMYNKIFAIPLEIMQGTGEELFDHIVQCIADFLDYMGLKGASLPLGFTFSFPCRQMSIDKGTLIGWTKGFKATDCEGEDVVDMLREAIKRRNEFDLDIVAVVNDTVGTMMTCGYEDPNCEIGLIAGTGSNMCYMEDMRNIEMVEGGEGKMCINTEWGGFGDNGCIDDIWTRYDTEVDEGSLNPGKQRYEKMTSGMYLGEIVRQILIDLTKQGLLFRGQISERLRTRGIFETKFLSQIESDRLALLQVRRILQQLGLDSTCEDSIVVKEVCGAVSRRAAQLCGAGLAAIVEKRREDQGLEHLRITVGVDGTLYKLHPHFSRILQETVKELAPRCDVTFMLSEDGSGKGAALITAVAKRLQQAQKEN

[1] = NIH-3T3 fibroblast cytotoxicity, dose response, cytotoxicity control, cell-based, fluorescence, Alamar Blue, secondary assay (AID 2327); type: functional;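 note: NIH-3T3 mouse fibroblasts cultured with fluconazole at 8 µg/mL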
[2] = C. albicans growth with fluconazole, confirmation, fluorescence, retest (AID 2467); type: functional, cell-based
[3] = target: Serine/threonine-protein phosphatase (Candida dubliniensis (strain CD36 / CBS 7987 / NCPF 3949 / NRRLY-17841) (Yeast), UniProt B9W6M3); assay: calcineurin pathway inhibitors in yeast reporter, dose response, S. cerevisiae, CDRE-lacZ, luminescence, secondary (AID 2388); type: functional, cell-based;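 note: yeast reporter cells carrying a calcineurin-responsive lacZ construct stimulated with calcium chloride; luminescent beta-galactosidase reporter signal in whole cells rather than isolated phosphatase activity; potency for inhibition where a drop in reporter signal means calcineurin blockade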
Sequence of Serine/threonine-protein phosphatase (B9W6M3 whole entry): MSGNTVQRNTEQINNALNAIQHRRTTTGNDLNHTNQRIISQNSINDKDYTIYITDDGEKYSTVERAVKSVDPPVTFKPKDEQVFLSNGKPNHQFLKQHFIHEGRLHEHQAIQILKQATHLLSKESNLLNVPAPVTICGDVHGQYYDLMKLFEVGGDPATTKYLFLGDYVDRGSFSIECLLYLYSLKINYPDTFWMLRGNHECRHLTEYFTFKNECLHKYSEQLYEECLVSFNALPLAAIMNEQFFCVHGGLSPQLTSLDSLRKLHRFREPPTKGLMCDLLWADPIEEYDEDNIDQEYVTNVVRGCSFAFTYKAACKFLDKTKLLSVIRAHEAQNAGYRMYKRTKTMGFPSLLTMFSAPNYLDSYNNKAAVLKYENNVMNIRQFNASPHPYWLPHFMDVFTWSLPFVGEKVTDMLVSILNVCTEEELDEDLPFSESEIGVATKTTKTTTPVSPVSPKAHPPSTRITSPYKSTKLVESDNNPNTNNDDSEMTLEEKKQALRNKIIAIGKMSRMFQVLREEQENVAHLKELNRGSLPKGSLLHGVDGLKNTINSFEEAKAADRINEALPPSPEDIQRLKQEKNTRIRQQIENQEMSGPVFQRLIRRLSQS

[4] = target: ATP-dependent molecular chaperone HSP82 (Candida albicans (strain WO-1) (Yeast), UniProt C4YTQ8); assay: loss of DOC-induced GRE-beta-galactosidase reporter signal, dose response, Hsp90 inhibitor project, S. cerevisiae, luminescence (AID 2400); type: functional, cell-based;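 note: beta-galactosidase luminescence from glucocorticoid response element reporter as proxy for Hsp90 function; inhibitor potency where signal loss means Hsp90 inhibition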
Sequence of ATP-dependent molecular chaperone HSP82 (C4YTQ8 whole entry): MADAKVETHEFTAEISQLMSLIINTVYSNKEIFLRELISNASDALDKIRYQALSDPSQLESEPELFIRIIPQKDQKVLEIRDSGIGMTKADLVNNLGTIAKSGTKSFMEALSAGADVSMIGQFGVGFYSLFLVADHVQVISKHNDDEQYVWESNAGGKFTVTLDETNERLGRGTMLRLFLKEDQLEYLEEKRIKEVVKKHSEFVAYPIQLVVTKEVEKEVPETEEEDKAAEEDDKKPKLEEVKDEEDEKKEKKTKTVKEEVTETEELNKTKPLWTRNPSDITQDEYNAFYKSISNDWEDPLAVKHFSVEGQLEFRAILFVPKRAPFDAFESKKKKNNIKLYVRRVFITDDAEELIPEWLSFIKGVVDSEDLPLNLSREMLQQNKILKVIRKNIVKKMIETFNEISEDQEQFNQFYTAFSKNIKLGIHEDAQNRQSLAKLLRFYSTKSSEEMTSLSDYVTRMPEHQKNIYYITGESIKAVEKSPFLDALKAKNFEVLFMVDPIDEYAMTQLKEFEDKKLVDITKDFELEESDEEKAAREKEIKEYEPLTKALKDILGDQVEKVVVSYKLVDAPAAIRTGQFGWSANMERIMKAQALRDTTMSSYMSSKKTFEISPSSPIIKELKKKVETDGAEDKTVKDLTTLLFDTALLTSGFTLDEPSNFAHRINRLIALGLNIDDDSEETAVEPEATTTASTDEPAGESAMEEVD

[5] = Luminescence-based cell-based high throughput dose response assay to identify activators of the DAF-12 from the parasite S. stercoralis (ssDAF-12).; type: functional
[6] = target: T3, Oxysterols receptor LXR-beta (Homo sapiens, UniProt P55055); type: functional, cell-based;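 note: Cell-based luminescence dose-response assay of agonist activity at LXR, run as a confirmatory counterscreen to a daf-12 agonist screen; HEK293 cells with Gal4-LXR fusion and GAL4-driven luciferase reporter; agonist potency from rising luciferase signal of a Gal4-LXR reporter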
T3 sequence (P55055 whole entry): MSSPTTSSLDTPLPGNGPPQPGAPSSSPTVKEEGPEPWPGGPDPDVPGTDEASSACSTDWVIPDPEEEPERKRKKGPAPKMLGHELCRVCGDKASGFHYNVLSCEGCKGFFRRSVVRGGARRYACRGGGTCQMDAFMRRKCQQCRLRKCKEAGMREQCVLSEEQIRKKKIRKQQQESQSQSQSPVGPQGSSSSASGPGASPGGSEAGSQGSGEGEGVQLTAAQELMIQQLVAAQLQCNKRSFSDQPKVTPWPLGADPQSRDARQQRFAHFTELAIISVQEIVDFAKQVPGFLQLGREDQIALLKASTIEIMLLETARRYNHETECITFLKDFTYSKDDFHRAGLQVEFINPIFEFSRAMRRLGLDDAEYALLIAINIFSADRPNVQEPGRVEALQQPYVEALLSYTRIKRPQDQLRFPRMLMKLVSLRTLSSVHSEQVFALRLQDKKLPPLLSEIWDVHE

Cc1ccccc1/C=C\c1nc2ccccc2c(=O)n1Cc1ccccc1
IC50 (Hexokinase-1): > 80 µM (inactive)
IC50 (Hexokinase HKDC1): > 80 µM (inactive)

CN1/C(=C/C(=O)c2cccs2)Sc2ccccc21
EC50 [1]: 14.7 µM (active)
EC50 [2]: 2.02 µM (active)
EC50 [3]: > 180 µM (inactive)
EC50 [4]: > 150 µM (inactive)
IC50 [5]: > 67.5 µM (inactive)
EC50 [6]: > 67.5 µM (inactive)
EC50 (cells): > 67.5 µM (inactive)
